Laboratory results as given in US20260053146A1 (priority 2024, published 2026).
Converted amounts (≈) assume the structure as drawn.

Legend:
[1] = physchem; conditions: pH 5.6
[2] = system: L. crescens BT-1
[3] = system: CLas; type: in vivo, Candidatus Liberibacter asiaticus; conditions: CLas-infected citron leaves, petioles soaked with 200 ng in buffer; D. citri nymphs 21 days; versus buffer control

Row | Compound | solubility [1] | MIC [2] | ability of bacteria in treated leaves to infect psyllid nymphs (CLas abundance in adult psyllids, FIG. 4) [3]
1 | Ac-INLKAIAALARNY-NH2 [Mastoparan-VT7, INLKAIAALARNY] | < 5 mg/mL | >200 µg/mL | 
2 | Ac-INWLKLGKKMMSAL-NH2 [MP, INWLKLGKKMMSAL] | > 20 mg/mL | 1000 µg/mL | 
3 | Ac-LKLLGIVKKVLGAI-NH2 [EMP-EM2, LKLLGIVKKVLGAI] | < 5 mg/mL | 200 µg/mL | 
4 | Ac-INWKKIASIGKEVLKAL-NH2 [PMM, INWKKIASIGKEVLKAL] | > 20 mg/mL | 200 µg/mL | 
5 | Ac-NLKAIAALAKKLL-NH2 [Mastoparan-VT2, NLKAIAALAKKLL] | > 20 mg/mL | 400 µg/mL | 
6 | Ac-INLKAIAAMAKKLL-NH2 [Mastoparan-like_12d, INLKAIAAMAKKLL] | > 20 mg/mL | 400 µg/mL | 
7 | Ac-VIVKAIATLSKKLL-NH2 [Mastoparan-VT5, VIVKAIATLSKKLL] | > 20 mg/mL | >1000 µg/mL | 
8 | Ac-INWKGIAAMAKKLL-NH2 [Mastoparan-X, INWKGIAAMAKKLL] | > 20 mg/mL | 1000 µg/mL | 
9 | Ac-INWKKMAATALKMI-NH2 [Parapolybia-MP, INWKKMAATALKMI] | > 20 mg/mL | >1000 µg/mL | 
10 | Ac-INMKASAAVAKKLL-NH2 [MP-VB1t, INMKASAAVAKKLL] | > 20 mg/mL | >1000 µg/mL | 
11 | Ac-IDWLKLGKMVMDVL-NH2 [Venom_protein_13b, IDWLKLGKMVMDVL] | < 5 mg/mL | 200 µg/mL | 
12 | polymyxin B [PMB, reference compound] |  |  | less able to infect the psyllid nymphs
13 | Ac-LKLMGIVKKVLGAL-NH2 [EMP-EM1, LKLMGIVKKVLGAL] | ≥ 10 mg/mL | 200 µg/mL | 
14 | Ac-GRILSFIKGLAEHL-NH2 [EMP-OD, GRILSFIKGLAEHL] | > 20 mg/mL | 400 µg/mL | 
15 | Ac-INWLKLGKQILGAL-NH2 [Mastoparan-R3, INWLKLGKQILGAL] | > 20 mg/mL | 400 µg/mL | 
16 | Ac-INWKKIKSIIKAAMN-NH2 [Mastoparan-V1, INWKKIKSIIKAAMN] | > 20 mg/mL | 400 µg/mL | 
17 | Ac-INWLKLGKKILGAL-NH2 [PDD-B, INWLKLGKKILGAL] | > 20 mg/mL | 1000 µg/mL | 
18 | Ac-INWKKIFEKVKNLV-NH2 [PDD-A, INWKKIFEKVKNLV] | > 20 mg/mL | 200 µg/mL | 
19 | Ac-INLKAITALAKKLL-NH2 [Mastoparan-VT3, INLKAITALAKKLL] | ≥ 10 mg/mL | 400 µg/mL | 
20 | Ac-INWKGIAAMKKLL-NH2 [Mastoparan-like_12b, INWKGIAAMKKLL] | > 20 mg/mL | >1000 µg/mL | 
21 | Ac-INWLKLGKKILGAI-NH2 [Mastoparan-R1, INWLKLGKKILGAI] | > 20 mg/mL | 200 µg/mL | 
22 | Ac-INLLKIAKGIIKSL-NH2 [EMP-AF, INLLKIAKGIIKSL] | > 20 mg/mL | 1000 µg/mL | 
23 | Ac-INWLKLGKMVIDAL-NH2 [Polybia-MPII, INWLKLGKMVIDAL] | > 20 mg/mL | 400 µg/mL | 
24 | Ac-INLKAIAAFAKKLL-NH2 [Mastoparan-T, INLKAIAAFAKKLL] | > 20 mg/mL | 200 µg/mL | 
25 | Ac-FDVMGIIKKIAGAL-NH2 [EMP-EF, FDVMGIIKKIAGAL] | < 5 mg/mL | 200 µg/mL | 
26 | Ac-INWKKIKSLIKAAMS-NH2 [Mastoparan-V2, INWKKIKSLIKAAMS] | > 20 mg/mL | 200 µg/mL | 
27 | Ac-LNFKALAALAKKIL-NH2 [Mastoparan-R2, LNFKALAALAKKIL] | > 20 mg/mL | 200 µg/mL | 
28 | CC[C@H](C)[C@H](NC(=O)[C@H](CC(=O)O)NC(=O)[C@H](Cc1ccccc1)NC(C)=O)C(=O)N[C@@H](CCSC)C(=O)NCC(=O)N[C@@H](CC(C)C)C(=O)N[C@H](C(=O)N[C@@H](CCCCN)C(=O)N[C@@H](CCCCN)C(=O)N[C@H](C(=O)N[C@@H](C)C(=O)NCC(=O)N[C@@H](C)C(=O)N[C@@H](CC(C)C)C(N)=O)C(C)C)[C@@H](C)CC [EMP-ER, FDIMGLIKKVAGAL] | ≥ 10 mg/mL | 200 µg/mL (≈ 0.132 mM) | 
29 | Ac-INLKAIAPLAKKLL-NH2 [Mastoparan-VT4, INLKAIAPLAKKLL] | > 20 mg/mL |  | 
30 | Ac-INLKAIAALVKKLL-NH2 [Mastoparan-VT6] | > 20 mg/mL | 100 µg/mL | 
